Data from ChEMBL document CHEMBL2417463, “Synthesis and identification of new flavonoids targeting liver X receptor β involved pathway as potential facilitators of Aβ clearance with reduced lipid accumulation” (J Med Chem, 2013).
Calls of active or inactive are those of the source. The calls are words filed in the database; no cut-off is given here.

Key:
Format in all cases: cell-based
[1] = biological target: T1, Oxysterols receptor LXR-beta (Homo sapiens) (UniProt P55055); experiment: Agonist activity at human LXRbeta transfected in HEK293 cells at 0.1 uM after 24 hrs by luciferase reporter gene assay relative to vehicle-treated control
T1 sequence (whole entry): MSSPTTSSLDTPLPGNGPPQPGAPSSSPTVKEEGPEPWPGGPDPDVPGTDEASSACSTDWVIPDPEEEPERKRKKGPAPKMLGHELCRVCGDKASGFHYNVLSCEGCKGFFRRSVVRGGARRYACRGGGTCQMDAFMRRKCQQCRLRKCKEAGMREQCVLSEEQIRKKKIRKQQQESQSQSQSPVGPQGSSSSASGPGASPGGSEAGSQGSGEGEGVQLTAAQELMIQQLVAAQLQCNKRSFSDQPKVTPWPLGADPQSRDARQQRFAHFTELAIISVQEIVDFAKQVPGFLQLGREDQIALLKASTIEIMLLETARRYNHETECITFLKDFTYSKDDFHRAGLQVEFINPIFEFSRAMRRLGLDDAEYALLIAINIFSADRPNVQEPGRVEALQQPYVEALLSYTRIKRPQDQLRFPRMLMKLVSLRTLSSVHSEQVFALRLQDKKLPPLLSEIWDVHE

[2] = biological target: T2, Oxysterols receptor LXR-alpha (Homo sapiens) (UniProt Q13133); experiment: Agonist activity at human LXRalpha transfected in HEK293 cells at 1 uM after 24 hrs by luciferase reporter gene assay relative to vehicle-treated control
T2 sequence (whole entry): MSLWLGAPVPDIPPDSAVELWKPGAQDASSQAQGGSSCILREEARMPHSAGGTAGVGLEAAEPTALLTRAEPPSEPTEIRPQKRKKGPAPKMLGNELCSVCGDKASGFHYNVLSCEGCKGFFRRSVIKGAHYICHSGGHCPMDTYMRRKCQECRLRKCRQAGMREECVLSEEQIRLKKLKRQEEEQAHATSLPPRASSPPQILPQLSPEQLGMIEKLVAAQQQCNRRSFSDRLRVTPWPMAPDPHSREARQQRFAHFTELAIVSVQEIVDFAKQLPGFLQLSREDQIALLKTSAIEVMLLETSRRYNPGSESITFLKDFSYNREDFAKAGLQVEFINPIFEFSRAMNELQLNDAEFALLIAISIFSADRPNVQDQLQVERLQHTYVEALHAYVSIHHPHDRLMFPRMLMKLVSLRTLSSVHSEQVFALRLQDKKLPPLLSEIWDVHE

[3] = biological target: T2, Oxysterols receptor LXR-alpha (Homo sapiens); experiment: Agonist activity at human LXRalpha transfected in HEK293 cells at 0.1 uM after 24 hrs by luciferase reporter gene assay relative to vehicle-treated control
[4] = biological target: T3, Oxysterols receptor LXR-beta (Mus musculus) (UniProt Q60644); experiment: Agonist activity at LXRbeta in mouse RAW264.7 cells assessed as induction of ABCA1 promoter activation after 24 hrs by Dual-Glo luciferase reporter gene assay
T3 sequence (whole entry): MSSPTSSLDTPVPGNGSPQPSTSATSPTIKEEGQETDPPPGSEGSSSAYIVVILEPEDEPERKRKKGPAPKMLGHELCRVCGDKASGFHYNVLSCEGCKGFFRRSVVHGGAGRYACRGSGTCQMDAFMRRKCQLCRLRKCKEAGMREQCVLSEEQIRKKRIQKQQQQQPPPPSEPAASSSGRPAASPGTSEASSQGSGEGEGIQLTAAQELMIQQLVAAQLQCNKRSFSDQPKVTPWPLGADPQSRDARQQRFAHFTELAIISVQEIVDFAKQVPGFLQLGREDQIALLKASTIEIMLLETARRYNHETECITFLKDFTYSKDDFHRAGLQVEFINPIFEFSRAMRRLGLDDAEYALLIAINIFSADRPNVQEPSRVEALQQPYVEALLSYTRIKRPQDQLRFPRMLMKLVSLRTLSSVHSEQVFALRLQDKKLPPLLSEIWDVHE

[5] = biological target: T3, Oxysterols receptor LXR-beta (Mus musculus); experiment: Agonist activity at LXRbeta in mouse RAW264.7 cells assessed as induction of ABCA1 promoter activation at 1 uM after 24 hrs by Dual-Glo luciferase reporter gene assay relative to vehicle-treated control
[6] = system: HEK293; experiment: Cytotoxicity against HEK293 cells assessed as inhibition of cell viability at 50 uM after 48 hrs by SRB assay relative to vehicle-treated control; settings: human, hek293, 48 h
[7] = system: HepG2; experiment: Cytotoxicity against human HepG2 cells assessed as inhibition of cell viability at 50 uM after 48 hrs by SRB assay relative to vehicle-treated control; settings: hepg2, 48 h, 50 µM
[8] = system: BV-2; experiment: Cytotoxicity against mouse BV2 cells assessed as inhibition of cell viability at 50 uM after 48 hrs by SRB assay relative to vehicle-treated control; settings: bv-2, 48 h
[9] = system: RAW264.7; experiment: Cytotoxicity against mouse RAW264.7 cells assessed as inhibition of cell viability at 50 uM after 48 hrs by SRB assay relative to vehicle-treated control; settings: raw264.7, 48 h
[10] = system: HepG2; experiment: Induction of cytoplasmic lipid accumulation in human HepG2 cells at 10 uM after 4 days by oil red O staining-based light microscopic analysis; settings: hepg2, 96 h
[11] = system: HepG2; experiment: Induction of intracellular triglyceride accumulation in human HepG2 cells at 10 uM after 4 days relative to vehicle-treated control; settings: hepg2, 96 h
[12] = system: HepG2; experiment: Induction of intracellular triglyceride accumulation in human HepG2 cells at 1 uM after 4 days relative to vehicle-treated control; settings: hepg2, 96 h
[13] = biological target: T3, Oxysterols receptor LXR-beta (Mus musculus); experiment: Agonist activity at LXRbeta in mouse BV2 cells assessed as degradation of intracellular soluble amyloid beta42 at 0.1 uM preincubated for 18 hrs followed by soluble amyloid beta42 addition measured after 24 hrs by ELISA relative to vehicle-treated control; settings: BV-2
[14] = biological target: T3, Oxysterols receptor LXR-beta (Mus musculus); experiment: Agonist activity at LXRbeta in mouse BV2 cells assessed as degradation of intracellular amyloid beta42 preincubated for 18 hrs followed by soluble amyloid beta42 addition measured after 24 hrs by ELISA; settings: BV-2
[15] = biological target: T3, Oxysterols receptor LXR-beta (Mus musculus); experiment: Agonist activity at LXRbeta in mouse BV2 cells assessed as degradation of intracellular soluble amyloid beta42 at 1 uM preincubated for 18 hrs followed by soluble amyloid beta42 addition measured after 24 hrs by ELISA relative to vehicle-treated control; settings: BV-2
[16] = biological target: T3, Oxysterols receptor LXR-beta (Mus musculus); experiment: Agonist activity at LXRbeta in mouse BV2 cells assessed as upregulation of apoE protein expression at 10 uM after 48 hrs by Western blot analysis relative to vehicle-treated control; settings: BV-2
[17] = biological target: T3, Oxysterols receptor LXR-beta (Mus musculus); experiment: Agonist activity at LXRbeta in mouse BV2 cells assessed as upregulation of apoE protein expression at 1 uM after 48 hrs by Western blot analysis relative to vehicle-treated control; settings: BV-2
[18] = biological target: T3, Oxysterols receptor LXR-beta (Mus musculus); experiment: Agonist activity at LXRbeta in mouse BV2 cells assessed as upregulation of apoE protein expression at 0.1 uM after 48 hrs by Western blot analysis relative to vehicle-treated control; settings: BV-2
[19] = biological target: T3, Oxysterols receptor LXR-beta (Mus musculus); experiment: Agonist activity at LXRbeta in mouse BV2 cells assessed as upregulation of ABCA1 protein expression after 12 to 48 hrs by Western blot analysis; settings: BV-2
[20] = biological target: T3, Oxysterols receptor LXR-beta (Mus musculus); experiment: Agonist activity at LXRbeta in mouse BV2 cells assessed as upregulation of ABCA1 protein expression at 1 uM after 12 to 48 hrs by Western blot analysis; settings: BV-2
[21] = biological target: T3, Oxysterols receptor LXR-beta (Mus musculus); experiment: Agonist activity at LXRbeta in mouse RAW264.7 cells assessed as upregulation of ABCA1 protein expression after 18 to 48 hrs by Western blot analysis
[22] = biological target: T3, Oxysterols receptor LXR-beta (Mus musculus); experiment: Agonist activity at LXRbeta in mouse RAW264.7 cells assessed as upregulation of ABCA1 protein expression at 1 uM after 18 to 48 hrs by Western blot analysis
[23] = biological target: T1, Oxysterols receptor LXR-beta (Homo sapiens); experiment: Agonist activity at human LXRbeta transfected in HEK293 cells at 1 uM after 24 hrs by luciferase reporter gene assay relative to vehicle-treated control
[24] = system: HepG2; experiment: Induction of cytoplasmic lipid accumulation in human HepG2 cells at 1 uM after 4 days by oil red O staining-based light microscopic analysis; settings: hepg2, 96 h

Nc1ccc(C(=O)/C=C/c2ccc3ccccc3c2)c(O)c1
fold change (FC) [1]: 1.38
fold change (FC) [2]: 1.11
fold change (FC) [3]: 1.06
Activity [4]: Dose-dependent effect
fold change (FC) [5]: 2.64
Activity [6]: Non-toxic
Activity [7]: Non-toxic
Activity [8]: Non-toxic
Activity [9]: Non-toxic
Activity [10]: Toxic
Activity [11]: 19%
Activity [12]: -21%
Activity [13]: 44%
Activity [14]: Dose-dependent effect
Activity [15]: 37%
fold change (FC) [16]: 1.7
fold change (FC) [17]: 1.4
fold change (FC) [18]: 1.4
Activity [19]: Dose-dependent effect
Activity [20]: Active
Activity [21]: Dose-dependent effect
Activity [22]: Active
fold change (FC) [23]: 2.22

O=c1cc(-c2cccc(Oc3ccccc3)c2)oc2cc(O)ccc12
fold change (FC) [5]: 1.17

O=c1cc(-c2ccc3ccccc3c2)oc2cc(O)ccc12
fold change (FC) [5]: 1.57
Activity [15]: 7%

Nc1ccc(C(=O)/C=C/c2ccc(Cl)cc2)c(O)c1
fold change (FC) [5]: 1.16

CCc1ccc(/C=C/C(=O)c2ccc(N)cc2O)cc1
fold change (FC) [5]: 1.73

Cc1ccc(-c2cc(=O)c3ccc(N)cc3o2)s1
fold change (FC) [5]: 1.47

Nc1ccc(C(=O)CCc2ccc3ccccc3c2)c(O)c1
fold change (FC) [5]: 1.34

O=c1cc(-c2ccc3ccccc3n2)oc2cc(O)ccc12
fold change (FC) [5]: 1.36

COc1ccc(-c2ccc(-c3cc(=O)c4ccc(O)cc4o3)s2)cc1
fold change (FC) [5]: 1.03

CC(C)c1ccc(-c2cc(=O)c3ccc(O)cc3o2)cc1
fold change (FC) [5]: 1.22

Nc1ccc(C(=O)/C=C/c2c[nH]c3ccccc23)c(O)c1
fold change (FC) [5]: 1.76
Activity [15]: 39%

CC(C)OC(=O)C(C)(C)Oc1ccc(C(=O)c2ccc(Cl)cc2)cc1
fold change (FC) [5]: 1.1

O=c1cc(-c2csc3ccccc23)oc2cc(O)ccc12
fold change (FC) [5]: 1.44

CCOc1ccc(-c2cc(=O)c3ccc(N)cc3o2)cc1
fold change (FC) [5]: 1.37

CC(=O)Nc1ccc(C(=O)/C=C/c2ccc(C)s2)c(O)c1
fold change (FC) [5]: 1.08

COc1cc(N)ccc1C(=O)/C=C/c1ccc2ccccc2c1
fold change (FC) [5]: 0.88

COc1cc(N(C)C)ccc1C(=O)/C=C/c1ccc(C)o1
fold change (FC) [5]: 1.57

Cc1ccc(-c2cc(=O)c3ccc(N)cc3o2)o1
fold change (FC) [5]: 1.3

COc1cc(N)ccc1C(=O)/C=C/c1ccc(C)s1
fold change (FC) [5]: 1.5

CSc1ccc(/C=C/C(=O)c2ccc(N)cc2O)cc1
fold change (FC) [5]: 1.26

O=S(=O)(c1ccccc1)N(CC(F)(F)F)c1ccc(C(O)(C(F)(F)F)C(F)(F)F)cc1 [T091317]
Activity [24]: Toxic
Activity [12]: 175%

CCOc1ccc(/C=C/C(=O)c2ccc(N)cc2O)cc1
fold change (FC) [5]: 1.92
Activity [15]: 16%

Nc1ccc(C(=O)/C=C/c2cc(C(F)(F)F)cc(C(F)(F)F)c2)c(O)c1
fold change (FC) [5]: 1.12

COc1cc(N)ccc1C(=O)/C=C/c1ccc(C)o1
fold change (FC) [5]: 1.2

CN(CCOc1ccc(CC2SC(=O)NC2=O)cc1)c1ccccn1 (centres undefined)
fold change (FC) [5]: 1.19

Nc1ccc(C(=O)/C=C/c2cccc(Oc3ccccc3)c2)c(O)c1
fold change (FC) [5]: 1.76

CC1=C(/C=C/C(C)=C\C=C\C(C)=C\C(=O)O)C(C)(C)CCC1
fold change (FC) [5]: 2.18

Cc1ccc(/C=C/C(=O)c2ccc(N(C)C)cc2O)o1
fold change (FC) [5]: 1.02

COc1ccc(-c2ccc(/C=C/C(=O)c3ccc(N)cc3O)s2)cc1
fold change (FC) [5]: 1.09

Nc1ccc(C(=O)/C=C/c2ccc3c(c2)OCO3)c(O)c1
fold change (FC) [5]: 1.92
Activity [15]: 40%

O=C(O)Cc1cccc(OCCCN(Cc2cccc(C(F)(F)F)c2Cl)CC(c2ccccc2)c2ccccc2)c1
fold change (FC) [1]: 1.42
fold change (FC) [2]: 2.38
fold change (FC) [3]: 1.53
fold change (FC) [5]: 1.83
Activity [24]: Toxic
Activity [11]: 242%
Activity [12]: 43%
Activity [15]: 55%
fold change (FC) [23]: 1.86

O=C(O)c1ccc(-c2cc(=O)c3ccc(O)cc3o2)cc1
fold change (FC) [5]: 1.66
Activity [15]: 18%

COc1cc(N(C)C)ccc1C(=O)/C=C/c1ccc2ccccc2c1
fold change (FC) [5]: 1.35

O=c1cc(-c2ccc(-c3ccccc3)cc2)oc2cc(O)ccc12
fold change (FC) [5]: 1.15

CC(C)c1ccc(/C=C/C(=O)c2ccc(N)cc2O)cc1
fold change (FC) [5]: 2.05

Nc1ccc(C(=O)/C=C/c2ccc(F)cc2)c(O)c1
fold change (FC) [5]: 1.36

Nc1ccc(C(=O)/C=C/c2ccc(-c3ccccc3)cc2)c(O)c1
fold change (FC) [5]: 1.55

Cc1ccc(/C=C/C(=O)c2ccc(N)cc2O)s1
fold change (FC) [5]: 2
Activity [15]: 37%

Nc1ccc(C(=O)/C=C/c2csc3ccccc23)c(O)c1
fold change (FC) [5]: 2.31
Activity [15]: 42%

COc1cc(/C=C/C(=O)c2ccc(N)cc2O)cc(OC)c1OC
fold change (FC) [5]: 0.98

CCOc1ccc(/C=C/C(=O)c2ccc(N)cc2O)cc1OC
fold change (FC) [5]: 1.86
Activity [15]: 23%

COc1cccc(/C=C/C(=O)c2ccc(N)cc2O)c1
fold change (FC) [5]: 2.09
Activity [15]: 33%

CCOc1ccc(/C=C/C(=O)c2ccc(N)cc2OC)cc1
fold change (FC) [5]: 1.06

Cc1ccc(CCC(=O)c2ccc(N)cc2O)o1
fold change (FC) [5]: 1.9
